This is an account of results in patent US20080300231A1, “Antibacterial amide macrocycles VI” (priority 2005, published 2008).

Converted amounts (≈) assume the structure as drawn.

Common to all, as to type: cell-based
One assay has as its system S. aureus 133. The assay can be described thus: Minimum inhibitory concentration (MIC), S. aureus 133. The following applies: S. aureus 133. As to the method:
(§1) Determination of the Minimum Inhibitory Concentration (MIC)
(§2) The minimum inhibitory concentration (MIC) is the minimum concentration of an antibiotic with which the growth of a test microbe is inhibited over 18-24 h. The inhibitor concentration can in these cases be determined by standard microbiological methods (see, for example, The National Committee for Clinical Laboratory Standards. Methods for dilution antimicrobial susceptibility tests for bacteria that grow aerobically; approved standard-fifth edition. NCCLS document M7-A5 [ISBN 1-56238-394-9]. NCCLS, 940 West Valley Road, Suite 1400, Wayne, Pa. 19087-1898 USA, 2000). The MIC of the compounds of the invention is determined in the liquid dilution test on the 96-well microtitre plate scale. The bacterial microbes are cultivated in a minimal medium (18.5 mM Na2HPO4, 5.7 mM KH2PO4, 9.3 mM NH4Cl, 2.8 mM MgSO4, 17.1 mM NaCl, 0.033 μg/ml of thiamine hydrochloride, 1.2 μg/ml of nicotinic acid, 0.003 μg/ml of biotin, 1% glucose, 25 μg/ml of each proteinogenic amino acid with the exception of phenylalanine; [H.-P. Kroll; unpublished]) with addition of 0.4% BH broth (test medium). In the case of Enterococcus faecium L4001, heat-inactivated fetal calf serum (FCS; GibcoBRL, Germany) is added to the test medium in a final concentration of 10%. Overnight cultures of the test microbes are diluted to an OD578 of 0.001 (to 0.01 in the case of enterococci) in fresh test medium, and incubated 1:1 with dilutions of the test substances (1:2 dilution steps) in test medium (200 μl final volume). The cultures are incubated at 37° C. for 18-24 hours; enterococci in the presence of 5% CO2
(§3) The lowest substance concentration in each case at which no visible bacterial growth occurs any more is defined as the MIC.
(§4) Alternative Method for Determining the Minimum Inhibitory Concentration (MIC)
(§5) The minimum inhibitory concentration (MIC) is the minimum concentration of an antibiotic with which the growth of a test microbe is inhibited over 18-24 h. The inhibitor concentration can in these cases be determined by standard microbiological methods with modified medium in an agar dilution test (see, for example, The National Committee for Clinical Laboratory Standards. Methods for dilution antimicrobial susceptibility tests for bacteria that grow aerobically; approved standard-fifth edition. NCCLS document M7-A5 [ISBN 1-56238-394-9]. NCCLS, 940 West Valley Road, Suite 1400, Wayne, Pa. 19087-1898 USA, 2000). The bacterial microbes are cultivated on 1.5% agar plates which contain 20% defibrinated horse blood. The test microbes, which are incubated overnight on Columbia blood agar plates (Becton-Dickinson), are diluted in PBS, adjusted to a microbe count of about 5×10^5 microbes/ml and placed dropwise (1-3 μl) on test plates. The test substances comprise different dilutions of the test substances (1:2 dilution steps). The cultures are incubated at 37° C. in the presence of 5% CO2 for 18-24 hours.
(§6) The lowest substance concentration in each case at which no visible bacterial growth occurred any more is defined as the MIC and is reported in μg/ml.

Assay [1] has as its system Enterococcus faecium L4001. Put plainly: Minimum inhibitory concentration (MIC), E. faecium L4001. The following applies: E. faecium L4001; test medium with 10% FCS. As to the method: as §1, §2, §3, §4, §5, §6
The next assay deals with S. aureus RN4220. The assay can be described thus: Resistance rate of S. aureus RN4220 on biphenomycin B agar plate. Particulars: agar plate containing 2 μg/ml biphenomycin B (10×MIC), 37° C. overnight. As for the experimental part:
The S. aureus strain RN4220Bi^R is isolated in vitro. […] Whereas about 1×10^7 cells grow on the antibiotic-free plate, about 100 colonies grow on the antibiotic-containing plate, corresponding to a resistance rate of 1×10^5. Some of the colonies grown on the antibiotic-containing plate are tested for the biphenomycin B MIC. One colony with a MIC of >50 μM is selected for further use, and the strain is referred to as RN4220Bi^R.

On to `NC[C@H](O)C[C@@H]1NC(=O)[C@@H](N)Cc2cc(ccc2O)-c2ccc(O)c(c2)C[C@@H](C(=O)O)NC1=O` [Biphenomycin B, biphenomycin B, reference compound], for which, in the assay with S. aureus 133, the “MIC S. aureus 133” value was less than 0.03 µg/mL. Besides, the “MIC E. faecium L4001” value in assay [1] is 0.5 µg/mL (≈ 1.06 µM). In addition, the resistance rate with S. aureus RN4220 is 1×10^5.
